Assay results as given in patent publication US6492124B1, “Trance activated signal transduction pathways in osteoclasts” (The Rockefeller University, priority 1999, dated 2002).

Assays:
[1] = tested on: NF-κB; test: NF-κB activation measured by IκB-α phosphorylation/degradation in osteoclasts and dendritic cells (Western blot); type: cell-based, mouse; conditions: osteoclasts and dendritic cells, beginning at 10 min of TRANCE, coinciding with peak of IκB-α phosphorylation
Procedure: FIG. 1. […] (A) Mature bone marrow-derived osteoclasts were stimulated for the indicated times with recombinant hCD8-TRANCE (TRANCE; 1 μg/ml). Levels of phosphorylated forms of p44/p42 ERK (p44 ERK^P and p42 ERK^P), IκBα (IκB-α^P) and PKB (PKB^P) in whole cell extracts were determined using phospho-peptide-specific antibodies as indicated in the figure. […] (B) as in (A) except the use of mature bone marrow-derived dendritic cells instead of osteoclasts.
FIG. 2. […] (A) Osteoclasts were serum starved and then pretreated for 90 min with LY294002 (10 μM), Herbimycin A (Herb. A; 10 μM), and PP1 (10 μM) inhibitors which are specific for PI3-kinase, PTKs, and Src-family kinases, respectively, were stimulated for indicated times with TRANCE (1 μg/ml). Levels of phosphorylated p44/p42 ERK, PKB, and IκB-α were determined as described in FIG. 1. Cells pretreated with vehicle (DMSO) were used as a negative control. (B) as in (A) except the use of mature bone marrow-derived dendritic cells.
Primary cells and cell lines. […] In brief, bone marrow cells from tibiae and femur of 4-6 week old mice (C57BL/6, Jackson Laboratories) were cultured overnight in media (α-MEM, 10% FCS) in the presence of CSF-1 (5 ng/ml). […] For experiments described in this study, only adherent cells were used after extensive washing. […] After allowing them adhere for 2 hours to a tissue culture dish, contaminating floater cells were washed away and mature dendritic cells were obtained by overnight culture.
Cell stimulation, cell transfection and in vitro assays. In vitro differentiated mature dendritic cells, macrophages and osteoclasts were washed to remove exogenous growth factors, cultured in media with low serum (0.5% FCS, 6 hours), then stimulated by adding various cytokines in the presence or absence of inhibitors for various times as indicated. After stimulation, the cells were washed in ice-cold PBS, and subjected to Western blot analysis or immunoprecipitation as described below. […]

[2] = tested on: PKB; test: PKB activation in dendritic cells (phospho-PKB Western blot); type: cell-based, mouse
Procedure: FIG. 1. TRANCE activates p44/42 ERK, NF-κB and PKB in osteoclasts and dendritic cells. (A) Mature bone marrow-derived osteoclasts were stimulated for the indicated times with recombinant hCD8-TRANCE (TRANCE; 1 μg/ml). Levels of phosphorylated forms of p44/p42 ERK (p44 ERK^P and p42 ERK^P), IκBα (IκB-α^P) and PKB (PKB^P) in whole cell extracts were determined using phospho-peptide-specific antibodies as indicated in the figure. The membranes were stripped and incubated with antibodies against the p44/p42 ERK, IκB-α, and PKB as indicated to confirm that similar amounts of whole cell extracts were analyzed. Note the decrease of IκB-α after 10 min of treatment due to its degradation. (B) as in (A) except the use of mature bone marrow-derived dendritic cells instead of osteoclasts.
FIG. 2. TRANCE-induced PKB activation in osteoclasts and dendritic cells is blocked by inhibitors of PI3-kinase, tyrosine kinases and Src family kinases. (A) Osteoclasts were serum starved and then pretreated for 90 min with LY294002 (10 μM), Herbimycin A (Herb. A; 10 μM), and PP1 (10 μM) inhibitors which are specific for PI3-kinase, PTKs, and Src-family kinases, respectively, were stimulated for indicated times with TRANCE (1 μg/ml). Levels of phosphorylated p44/p42 ERK, PKB, and IκB-α were determined as described in FIG. 1. Cells pretreated with vehicle (DMSO) were used as a negative control. (B) as in (A) except the use of mature bone marrow-derived dendritic cells.
FIG. 6. Cytokine receptors that engage TRAF6 activate PKB through Src-family kinases. (A) Dendritic cells were treated with TNF (10 ng/ml), TRANCE (5 μg/ml), LPS (50 μg/ml), or IL-1α (20 ng/ml) for the indicated times (min). The activation of PKB was determined in whole cell extracts using a phospho-PKB-specific antibody as described in FIG. 1. (B) Dendritic cells were pretreated with vehicle (DMSO) or the Src-family kinase inhibitor, PP1 (10 μM) for 90 minutes followed by a 15 minute treatment with TRANCE (5 μg/ml), LPS (50 μg/ml), or IL-1α (20 ng/ml) or no treatment at all (−). The activation of PKB was determined as described in FIG. 1.
Primary cells and cell lines. Osteoclasts and macrophages were generated from bone marrow precursors as described (Wani, et al., Endocrinology, 140:[…], 1999). In brief, bone marrow cells from tibiae and femur of 4-6 week old mice (C57BL/6, Jackson Laboratories) were cultured overnight in media (α-MEM, 10% FCS) in the presence of CSF-1 (5 ng/ml). After 24 hours, non-adherent cells were harvested, washed, and further cultured in media with CSF-1 (50 ng/ml) plus TRANCE (10 ng/ml) to develop osteoclasts, or with CSF-1 alone to develop macrophages. Using these conditions, after 4 days of culture, greater than 95 percent of the adherent cells were osteoclasts or macrophages. For experiments described in this study, only adherent cells were used after extensive washing. Mature dendritic cells were generated from bone marrow precursors of 4-6 week old female C57BL/6 mice (C57BL/6, Jackson Laboratories) cultured in media (RPMI1640, 5% FBS) and GM-CSF (1:30 cultured supernatant from the J558 cell line, a gift from Dr. R. M. Steinman, The Rockefeller University) for 8 days as previously described (Inaba, et al., J. Exp. Med., 176:1693-1702, 1992). To generate osteoclasts and dendritic cells from c-Src deficient mice, spleen cells, which contain hematopoietic precursors due to extramedullary hematopoeisis, were substituted for bone marrow cells as previously described (Schwartzberg, et al., Genes Dev., 11:2835-2844, 1997). Mature spleen-derived dendritic cells were isolated from spleens treated with collagenase (40 U/ml; Boehinger Mannheim) and subjected to a Nycodenz centrifugation gradient (14.5%; Nycomed) to obtain low density cells. After allowing them adhere for 2 hours to a tissue culture dish, contaminating floater cells were washed away and mature dendritic cells were obtained by overnight culture.
Cell stimulation, cell transfection and in vitro assays. […]

In the case of “TNF-related activation-induced cytokine [TRANCE]”, the “total cellular IκB-α” value [1] was “decrease”, the “PKB activation in dendritic cells stimulated with cytokine” value ([2]; TNF 10 ng/ml, TRANCE 5 μg/ml, LPS 50 μg/ml, IL-1α 20 ng/ml, CD40L data not shown) was “activated” and the “PKB activation in dendritic cells from c-Src−/− mice” value ([2]; TRANCE-treated, compared with wild-type) was “not significantly reduced”. For the same substance, the “time for which PKB activity was sustained” value ([2]; dendritic cells, TRANCE stimulation) was “greater than 3 hours” and the “phosphorylated form of PKB upon TRANCE stimulation” value ([2]; dendritic cells, after 5 minutes, TRANCE 1 μg/ml) was “increase”.
